This note sets out measurements from ChEMBL document CHEMBL5303711, “ECBD screening data for assay EOS300108” (2023).

Molecules are shown by their SMILES. The source made the active and inactive calls. How the calls were made is not given here.

The nature of the series: Cytotoxicity activity against human HepG2 cells assessed by CellTiter-Glo luminescent cell viability assay. The series is classed as toxicity, cell-based. Details: assay stage confirmatory assay, source tissue liver. Particulars: HepG2 cells, read-out: IC50 relative.
With `O=C(Nc1ccc(Cl)c(Cl)c1)Nc1ccc(Cl)c(Cl)c1`, the CC50 is 13.1 µM (active).
As for `COc1cc2c(NC3CCN(C(C)C)CC3)nc(C3CCCCC3)nc2cc1OCCCN1CCCC1`, the figure is 2.4 µM (active); as for `COc1cc(N2CCC(O)CC2)ccc1Nc1cc(Nc2ccccc2S(=O)(=O)C(C)C)c2cc[nH]c2n1`, 12.9 µM (active).
The figure for `NCCNS(=O)(=O)c1cccc2cnccc12` is 13.2 µM (inactive); for `O=C(NCCO)c1cccc(-c2cc(Nc3ccc(OC(F)(F)F)cc3)ncn2)c1` it is 19.4 µM (inactive).
For `O=[N+]([O-])c1ccc(NN=Cc2sc(N3CCOCC3)nc2-c2ccccc2)c(S(=O)(=O)Nc2ccccc2Cl)c1`, the CC50 was 2.7 µM (active).
As for `c1ccc(-c2cn3c(n2)CCc2ccc4cccnc4c2-3)cc1`, the figure is 4 µM (active); as for `O=S(=O)(NCCNC/C=C/c1ccc(Br)cc1)c1cccc2cnccc12`, 9.7 µM (active); as for `CN(C)S(=O)(=O)c1cccc(-n2sc3ccccc3c2=O)c1`, 9.3 µM (active).
`Cc1ccccc1OCc1n(CC(=O)OC2CC(C)CCC2C(C)C)c2ccccc2[n+]1C` (centres undefined): the CC50 is 4.4 µM (active).
As for `Cc1csc(NC(=O)CSc2ccc(-c3ccccc3)nn2)n1`, the figure is 14.7 µM (inactive); as for `O=C(Oc1c(Cl)cc(Cl)c2cccnc12)c1ccco1`, 8 µM (active).
The figure for `O=C(Nc1cccnn1)N1CCC(=Cc2cccc(Oc3ccc(C(F)(F)F)cn3)c2)CC1` is 7.5 µM (active); for `Cc1ccc(C)c(-n2sc3cc(F)ccc3c2=O)c1` it is 6.5 µM (active).
As for `Cn1cc(/C=C2\C(=O)Nc3cccnc32)c2ccccc21`, the figure is 8.1 µM (inactive); as for `CCOC(=O)c1cnc2ccc(-c3cncc(NS(=O)(=O)c4ccccc4)c3)cn12`, 3.8 µM (active); as for `Cc1cc(Nc2nc(N[C@@H](C)c3ccc(F)cc3)c(C#N)cc2F)n[nH]1`, 2.7 µM (active).
For the compound `NC(=O)c1ccc2[nH]c(-c3ccc(Oc4ccc(Cl)cc4)cc3)nc2c1`, the CC50 was 14.7 µM (inactive).
As for `COc1cc(/C=C(\C#N)C(=O)Nc2nnc(C(F)(F)F)s2)ccc1OCc1ccc(C(F)(F)F)cc1C(F)(F)F`, the figure is 12 µM (active); as for `CCN(c1nc(N)c(C(=O)NC(=N)N)nc1Cl)C(C)C`, 12.5 µM (active); as for `Cc1sc2c(c1C)C(c1ccc(Cl)cc1)=N[C@@H](CC(=O)OC(C)(C)C)c1nnc(C)n1-2`, 1.2 µM (active).
The figure for `COc1ccc2cc(S(=O)(=O)N[C@H](CC(=O)N[C@H](Cc3ccc(CN4[C@H](C)CCC[C@@H]4C)cc3)C(=O)N(C)C(C)C)c3ccc4c(c3)OCO4)ccc2c1` is 4.1 µM (active); for `CCCCCCCC(=O)N[C@H](CN1CCCC1)[C@H](O)c1ccc2c(c1)OCCO2` it is 15.7 µM (inactive); for `Cc1c(C(=O)Nc2cccc(C(F)(F)F)c2)cc(-c2ccccc2)n1CCCN1CCOCC1` it is 13.9 µM (inactive).
`CCc1cncnc1N1CCN(Cc2nc3cc(C(F)(F)F)ccc3[nH]2)CC1`: the CC50 is 9.5 µM (active).
The figure for `C[C@@H]1CN(CC(=O)Nc2ccc3c(c2)Cc2cccc(-c4cc(=O)cc(N5CCOCC5)o4)c2S3)C[C@H](C)O1` is 17.8 µM (inactive); for `COc1ccccc1S(=O)(=O)Nc1ccc2c(c1)CN(C)C(=O)N2` it is 3.7 µM (active).
Consider `CCCc1cc(C)[nH]c(=O)c1CNC(=O)c1cc(-c2ccnc(N3CCN(C)CC3)c2)cc2c1cnn2C(C)C`, for which the CC50 is 6 µM (active).
The figure for `CC(C)(C)c1ccccc1Oc1ncccc1NC(=O)Nc1ccc(OC(F)(F)F)cc1` is 7.9 µM (active); for `Cc1cc(Nc2ccc(NC(=O)c3ccc(Nc4ccnc5ccccc45)cc3)cc2)nc(N)n1` it is 0.4 µM (active).
The figure for `COc1cc2c(NC3CCN(C(C)C)CC3)nc(N3CCC(F)(F)CC3)nc2cc1OCCCN1CCCC1` is 3.1 µM (active); for `NCC1CCC(CNc2nc(NCc3ccccc3OC(F)(F)F)ncc2[N+](=O)[O-])CC1` (centres undefined) it is 9.7 µM (active).
As for `CCNC(=O)c1noc(-c2cc(Cl)c(O)cc2O)c1-c1ccc(OC)cc1`, the figure is 0.1 µM (active); as for `Cc1nnsc1C(=O)Nc1ccc(-n2nc(C(F)(F)F)cc2C(F)(F)F)cc1`, 9.9 µM (active).
Turning to `Nc1ncnc2c1ncn2[C@@H]1CC[C@@H](O)[C@H]1O`, the CC50 was 1.6 µM (active).
The figure for `CCCCOc1c(C(=O)c2c(F)cc(C)cc2F)c[nH]c2nncc1-2` is 50 µM (inactive).
Turning to `CCOC(=O)CCNc1cc(N2CCc3ccccc3CC2)nc(-c2ccccn2)n1`, the CC50 is 7.5 µM (active).
The figure for `C=CCN(C)CCCCCCOc1ccc(C(=O)c2ccc(Br)cc2)c(F)c1` is 2.8 µM (active); for `N#Cc1ccc(NC(=O)NCc2cnc3scc(-c4ccc(Br)cc4)n23)cc1` it is 35 µM (active).
Take `CCCc1cc(C)[nH]c(=O)c1CNC(=O)c1cc(-c2ccc(N3CCN(C(C)C)CC3)nc2)cc2c1cnn2C(C)C`: the CC50 was 2.6 µM (active).
The figure for `Cc1cn(CCN2CCN(c3ccccc3-c3cc(C#N)cc(C(=O)NCCCN4CCCC4)c3)CC2)c2ccccc12` is 1.4 µM (active); for `CN(C)c1nc2c(Br)c(Br)c(Br)c(Br)c2[nH]1` it is 50 µM (inactive); for `COC(=O)C[C@@H]1N=C(c2ccc(Cl)cc2)c2c(sc(C)c2C)-n2c(C)nnc21` it is 0.1 µM (active).
As for `Oc1cc2c(cc1C(c1ccc(C(F)(F)F)cc1)N1CCOCC1)OCO2` (centres undefined), the figure is 26 µM (inactive).
The figure for `CC(C)Oc1ccc(-c2c[nH]cc2CN(C)CCN)cc1` is 23.3 µM (inactive); for `O=C(Nc1cccc(Nc2ncc(Br)c(NCCc3c[nH]cn3)n2)c1)N1CCCC1` it is 3.3 µM (active); for `O=C(NCCN1CCC(n2c(=O)[nH]c3ccccc32)CC1)c1cc2cc(F)ccc2[nH]1` it is 6.4 µM (active).
In the case of `NC(=O)Nc1sc(-c2ccccc2)cc1C(N)=O`, the CC50 is 7.9 µM (active).
As for `O=C(NC1(c2ccccc2)CC1)c1c(CN2CCC(N3CCCCC3)CC2)c(-c2cccc(C(F)(F)F)c2)nc2cc(Br)ccc12`, the figure is 2.6 µM (active); as for `CCN1/C(=C/c2ccc3ccccc3[n+]2CC)C=Cc2ccccc21`, 1 µM (active).
The figure for `Nc1ccc2c(c1)C(=O)C(=O)c1ccccc1-2` is 4.2 µM (active).
The figure for `Cc1sc2c(c1C)C(c1ccc(Cl)cc1)=N[C@@H](CC(N)=O)c1nnc(C)n1-2` is 0.3 µM (active); for `CCC(=O)Nc1cccc(Oc2nc(Nc3ccc(N4CCN(C)CC4)cc3OC)ncc2Cl)c1` it is 2.8 µM (active); for `COc1ccc(N(C(=O)Nc2c(C)cccc2C)c2cc(Nc3ccc(N4CCN(C)CC4)cc3)ncn2)c(OC)c1` it is 6.1 µM (active).
For `O=C(Nc1nc2ccc(NC(=O)C34CC5CC(CC(C5)C3)C4)cc2s1)c1ccccc1`, the CC50 was 15 µM (inactive).
As for `CCN1/C(=C/C(C)=C/c2sc3ccccc3[n+]2CC)Sc2ccccc21`, the CC50 is 0.4 µM (active).
Turning to `COc1ccc2c(O[C@@H]3C[C@H]4C(=O)N[C@]5(C(=O)NS(=O)(=O)C6CC6)C[C@H]5/C=C\CCCCN(C)C(=O)[C@@H]4C3)cc(-c3nc(C(C)C)cs3)nc2c1C`, the CC50 was 8.6 µM (active).
The figure for `CCN1CCN(C(=O)Cc2ccc(Nc3ncc(F)c(Nc4ccc(C(=O)Nc5ccccc5Cl)cc4)n3)cc2)CC1` is 1.8 µM (active); for `COc1cc(C(=O)N2CC[C@@H](O)[C@@H](N)C2)cc2nc(-c3cc4ccccc4n3CC3CC3)n(C)c12` it is 6.1 µM (active).
As for `OCCn1cc(-c2ccc3c(c2)CC/C3=N\O)c(-c2ccncc2)n1`, the figure is 1.1 µM (active).
The figure for `COC1=C2C[C@@H](C)C[C@H](OC)[C@H](O)[C@@H](C)/C=C(/C)[C@H](OC(N)=O)[C@@H](OC)/C=C\C=C(\C)C(=O)NC(=CC1=O)C2=O` is < 0.1 µM (active); for `O=C(N[C@H]1CN2CCC1CC2)c1cc2cccc(Cl)c2s1` it is 5.9 µM (active).
Consider `CC[C@@H](N)CNc1ccnc(-c2cc(-c3cnn(C)c3)ccc2O)n1`, for which the CC50 was 1.2 µM (active).
Regarding `COc1c(Nc2ncc(Cl)c(N[C@H]3[C@@H](C(N)=O)[C@@H]4C=C[C@H]3C4)n2)ccc2c1CC[C@@H](N1CCOCC1)CC2`, the CC50 was 2 µM (active).
The figure for `Cc1cc(O)c(-c2ccc([C@@H](C)CN(C)C)cc2)c2c1[nH]c(=O)c1sccc12` is 0.1 µM (active); for `COc1ccc(OC2CCN(CCC(=O)Nc3cccc(F)c3)CC2)cc1` it is 14.8 µM (inactive).
As for `O=C1COc2c(CCNCCN(C(=O)CCNCCc3ccc(Cl)c(Cl)c3)C3CCCCC3)ccc(O)c2N1`, the figure is 10.5 µM (active).
As for `NC(=O)c1cnc2[nH]ccc2c1N[C@@H]1[C@@H]2C[C@@H]3C[C@H]1C[C@@](O)(C3)C2`, the figure is 8 µM (active).
As for `CC1(C)CN2C(CS/C(=N\C3CCCCC3)NC3CCCCC3)=CSC2=N1`, the CC50 is 6 µM (active).
As for `NCc1ccc(-c2ccccc2)s1`, the figure is 5.9 µM (active); as for `CC1(C)N=C(N)N=C(N)N1c1ccc(Br)cc1`, 9.1 µM (inactive).
On to `Oc1ccc2c(c1)CC[C@H](c1ccccc1)[C@@H]2c1ccc(OCCN2CCCC2)cc1`, for which the CC50 was 2.9 µM (active).
The figure for `Nc1nc(NC[C@H]2CC[C@H](CNS(=O)(=O)c3cccc4ccccc34)CC2)nc2ccccc12` is 2 µM (active); for `CN1C/C=C\CCOc2cccc(c2)-c2ccnc(n2)Nc2cccc(c2)C1` it is < 0.1 µM (active).
As for `Fc1ccc(C(OCCN2CCN(CCCc3ccccc3)CC2)c2ccc(F)cc2)cc1`, the figure is 5.7 µM (active).
The figure for `COc1cccc(C(=O)Nc2ncc(Cc3cccc(C(F)(F)F)c3)s2)c1` is 8 µM (active).
Regarding `CC(=O)NC(c1ccccc1)c1cc(Cl)c2cccnc2c1O` (centres undefined), the CC50 is 1.4 µM (active).
The figure for `O=C1c2ccccc2-c2n[nH]c3cccc1c23` is 6.2 µM (active).
As for `CC1(C)N=C(N)N=C(N)N1c1cccc(Cl)c1`, the figure is 0.9 µM (active).
